The results in this text go back to PMC5113775, “Mirror‐Image Packing Provides a Molecular Basis for the Nanomolar Equipotency of Enantiomers of an Experimental Herbicide” (Angewandte Chemie (International Ed. in English), 2016).

SMILES strings stand for the structures.

One assay deals with T1, At ΔN IGPD2 construct A (Arabidopsis thaliana, UniProt O23346).
T1 construct: gene HISN5B; N-terminally truncated (delta-N) construct A, longer than construct B; borders only in supplement
The assay is described as follows: crystal structure, […] Å. It counts as binding. As to conditions: active site, two manganese ions; racemate.

A further assay addresses T2, At ΔN IGPD2 construct B (Arabidopsis thaliana, UniProt O23346).
T2 construct: gene HISN5B; N-terminally truncated (delta-N) construct B, shorter than construct A; borders only in supplement; Mn2+ enzyme; EC 4.2.1.19
As to the kind of experiment: in vitro enzyme inhibition assay; crystal structure. Format: biochemical.

T2 sequence (O23346 69-272, stated change not applied): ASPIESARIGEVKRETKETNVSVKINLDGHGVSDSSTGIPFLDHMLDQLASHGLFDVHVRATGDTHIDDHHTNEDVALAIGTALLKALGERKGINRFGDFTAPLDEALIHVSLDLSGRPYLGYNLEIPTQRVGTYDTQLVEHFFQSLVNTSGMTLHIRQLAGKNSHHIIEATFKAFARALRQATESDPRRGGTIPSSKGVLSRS
T1 sequence (O23346 53-272, stated change not applied): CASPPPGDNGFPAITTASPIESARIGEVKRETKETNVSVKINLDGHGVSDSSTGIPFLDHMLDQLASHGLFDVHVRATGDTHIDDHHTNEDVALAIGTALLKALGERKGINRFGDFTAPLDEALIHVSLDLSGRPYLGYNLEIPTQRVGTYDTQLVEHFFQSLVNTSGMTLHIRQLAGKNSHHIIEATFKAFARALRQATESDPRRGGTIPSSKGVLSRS

Consider `O=P(O)(O)CC(O)Cn1cncn1` (racemic) [C348, 2‐hydroxy‐3‐(1,2,4‐triazol‐1‐yl) propylphosphonate], for which, at At ΔN IGPD2 construct A, the “crystal structure, 1.85 Å” value is “grown in the presence of a racemate of C348 and the structure”.

As usually defined, the Ki is a measure of affinity in units of concentration, obtained from inhibition or displacement. The low end stands for higher affinity, the high end for lower affinity. Consider `O=P(O)(O)C[C@H](O)Cn1cncn1` [(R)‐C348, 2‐hydroxy‐3‐(1,2,4‐triazol‐1‐yl) propylphosphonate], for which the Ki on At ΔN IGPD2 construct B came to 15 ± 5 nM.

Molecule `O=P(O)(O)C[C@@H](O)Cn1cncn1` [(S)‐C348, 2‐hydroxy‐3‐(1,2,4‐triazol‐1‐yl) propylphosphonate] gave an inhibition constant Ki at At ΔN IGPD2 construct B of 25 ± 3 nM.
